The record followed here is PubChem BioAssay AID1159564 (GlaxoSmithKline (GSK), 2015).

Structures are written as SMILES. Activity calls are given as the source filed them. The rule behind the calls is not given here. Where only a bound is given, the exact number is not on record here.

Broadly, the IC50 is the concentration that gives 50% inhibition.

This assay relates to L. donovani-infected THP-1 macrophages, intracellular amastigote imaging. Put plainly: antileishmanial activity in infected THP-1 macrophages – imaging, THP-1 host macrophages, host toxicity (AID 1159564).
Setting [1] is: measured here: THP-1 host cell toxicity.
Where [2] appears, read: measured here: amastigotes per macrophage.

For the compound `COc1ccc2ncc(Cl)c(CCN3CC[C@@H](NCc4cc5c(cn4)OCS5)[C@H](O)C3)c2n1`, the IC50 was 13 µM. Under setting [1], this compound returned an IC50 of 25 µM. Under setting [2], the IC50 was found to be 7.9 µM.
Take `O=c1[nH]c(NCCCNCc2cc(Br)cc(Br)c2)nc2ccsc12`: the IC50 was 5 µM. Under setting [1], this compound gave an IC50 of 16 µM. Under setting [2], this compound displayed an IC50 of 2.5 µM.
In the same order, the values of `COc1ccc(Nc2nc(-c3ccccn3)cc(N3CCCC(O)C3)n2)cc1` (stereo unspecified) are 1 µM, 25 µM and 0.79 µM.
In the same order, the values of `COc1ccc(Cc2nc(-c3ncc4cccnc4c3O)n[nH]2)cc1OC` are 3.2 µM, 20 µM and 2.5 µM.
For `COc1cccc(-c2c(C)nn(-c3nc(N)nc(-c4ccccn4)n3)c2N)c1` the same measures were 2 µM, more than 50 µM and 1.6 µM.
Consider `CCCCc1cc(Nc2cc(C3CCC3)[nH]n2)nc(N2CCC2C(N)=O)n1` (stereo unspecified), for which the IC50 is 2 µM. For the same compound, the IC50 under setting [1] amounted to 1 µM. Besides, the IC50 under setting [2] was 0.63 µM.
For `COc1ccc(C(=O)Nc2ccc(NC(=O)CO)cc2)cc1`, the IC50 was > 50 µM (inactive). Under setting [1], the IC50 amounted to 20 µM. The same compound registered an IC50 under setting [2] of more than 50 µM.
For `O=C1CCCCCC1(Cc1cnc[nH]1)c1ccc(Cl)cc1Cl` (stereo unspecified) the same measures were > 50 µM (inactive), more than 50 µM and 6.3 µM.
In the same order, the values of `CN(Cc1ccccc1)Cc1nnnn1C1CCN(Cc2ccc(-n3ccnc3)cc2)CC1` are > 50 µM (inactive), 32 µM and more than 50 µM.
As for `CCN(CC)S(=O)(=O)c1ccc(C)c(NC(=O)c2cc(Cl)c3c(c2)OCO3)c1`, the IC50 is > 50 µM (inactive). This compound also registered a 50% inhibitory concentration (IC50) under setting [1] of more than 50 µM. Under setting [2], the IC50 is more than 50 µM.
Regarding `CCOc1ccc2nc(NC(=O)c3ccc([N+](=O)[O-])s3)sc2c1`, the IC50 was 6.3 µM. In addition, the IC50 under setting [1] was more than 50 µM. In addition, the 50% inhibitory concentration (IC50) under setting [2] was found to be 5 µM.
As to `O=C(c1cccc(Cl)c1Cl)N1CCn2c1nc(-c1ccncc1)cc2=O`, the IC50 is > 50 µM (inactive). The compound also returned an IC50 under setting [1] of more than 50 µM. For the same compound, the IC50 under setting [2] turned out to be 32 µM.
On to `CC(Cn1ccnc1)NC(=O)C=Cc1ccc(Cl)cc1` (stereo unspecified), for which the IC50 was > 50 µM (inactive). Under setting [1], this compound showed an IC50 of more than 50 µM. The IC50 under setting [2] is more than 50 µM.
As to `CN(C)S(=O)(=O)c1cccc(CSc2nnc(-c3ccc4c(c3)OCO4)o2)c1`, the IC50 was 2 µM. Moreover, under setting [1], the IC50 was more than 50 µM. The IC50 under setting [2] was 0.63 µM.
As for `Cc1[nH]c2ccccc2c(=O)c1Cc1c(C)[nH]c2ccccc2c1=O`, the IC50 is > 50 µM (inactive). Further, the IC50 under setting [1] is more than 50 µM. The compound further gave an IC50 under setting [2] of more than 50 µM.
Consider `Oc1cccnc1-c1n[nH]c(Cc2ccccc2)n1`, for which the IC50 is 3.2 µM. Further, the IC50 under setting [1] was determined as 16 µM. This compound also yielded an IC50 under setting [2] of 2 µM.
For `CCC(=O)N1N=C(c2ccc3c(c2)CCCC3)Sc2c1ncn2C(=O)CC` the same measures were 3.2 µM, more than 50 µM and 2.5 µM.
Take `O=C(NCCc1csc(-c2ccc(F)cc2)n1)c1ccco1`: the IC50 was > 50 µM (inactive). In addition, the IC50 under setting [1] is more than 50 µM. The IC50 under setting [2] is more than 50 µM.
In the case of `O=C(c1cc2cc(Cl)ccc2[nH]1)N1CCCCC1c1cccnc1` (stereo unspecified), the IC50 was 32 µM. The IC50 under setting [1] turned out to be 16 µM. Moreover, the IC50 under setting [2] stood at 10 µM.
In the same order, the values of `Cc1ccc(NC(=O)c2ccnc(N3CCCC3)c2)cc1-c1cc(C(N)=O)ccc1C` are 40 µM, 32 µM and 25 µM.
For `c1cncc(CN(Cc2ccco2)Cc2cn[nH]c2-c2cccs2)c1` the same measures were > 50 µM (inactive), 20 µM and 1.3 µM.
For `Cc1c(C#N)c([N+](=O)[O-])nn1Cc1cccc(Cl)c1Cl` the same measures were > 50 µM (inactive), 16 µM and 16 µM.
Regarding `FC(F)(F)c1cc(C2CCCN(Cc3c[nH]c4ccccc34)C2)nc2ncnn12` (stereo unspecified), the IC50 was > 50 µM (inactive). For the same compound, the IC50 under setting [1] was 16 µM. Besides, the IC50 under setting [2] was more than 50 µM.
In the same order, the values of `CC(C)Oc1ccc(C(=O)Nc2ccc(N3CCOCC3)c(Cl)c2)cc1` are > 50 µM (inactive), more than 50 µM and 3.2 µM.
For the compound `Cc1[nH]n2c(=O)c3c(nc2c1-c1ccc(Br)cc1)CCCC3`, the IC50 was > 50 µM (inactive). In addition, the IC50 under setting [1] is more than 50 µM. In addition, the IC50 under setting [2] amounted to 40 µM.
In the same order, the values of `COc1ccccc1-c1c(C)[nH]c2nc(N)nc(C)c12` are 25 µM, more than 50 µM and 16 µM.
As for `CC(C)COC(=O)Nc1ccc(N2CCC(CNS(=O)(=O)c3ccccc3)CC2)c(F)c1`, the IC50 is 2 µM. Further, the IC50 under setting [1] is more than 50 µM. Further, the IC50 under setting [2] is 1.3 µM.
